Some targets named below: DYRK1A (Homo sapiens, UniProt Q13627); FGFR2 (Homo sapiens, UniProt P21802); GSK3B (Homo sapiens, UniProt P49841); LOK (Homo sapiens, UniProt O94804).
What all share (assay): biochemical
The next experiment has as its target T1, DMPK1 (Homo sapiens, UniProt Q09013).
T1 sequence (Q09013 1-629): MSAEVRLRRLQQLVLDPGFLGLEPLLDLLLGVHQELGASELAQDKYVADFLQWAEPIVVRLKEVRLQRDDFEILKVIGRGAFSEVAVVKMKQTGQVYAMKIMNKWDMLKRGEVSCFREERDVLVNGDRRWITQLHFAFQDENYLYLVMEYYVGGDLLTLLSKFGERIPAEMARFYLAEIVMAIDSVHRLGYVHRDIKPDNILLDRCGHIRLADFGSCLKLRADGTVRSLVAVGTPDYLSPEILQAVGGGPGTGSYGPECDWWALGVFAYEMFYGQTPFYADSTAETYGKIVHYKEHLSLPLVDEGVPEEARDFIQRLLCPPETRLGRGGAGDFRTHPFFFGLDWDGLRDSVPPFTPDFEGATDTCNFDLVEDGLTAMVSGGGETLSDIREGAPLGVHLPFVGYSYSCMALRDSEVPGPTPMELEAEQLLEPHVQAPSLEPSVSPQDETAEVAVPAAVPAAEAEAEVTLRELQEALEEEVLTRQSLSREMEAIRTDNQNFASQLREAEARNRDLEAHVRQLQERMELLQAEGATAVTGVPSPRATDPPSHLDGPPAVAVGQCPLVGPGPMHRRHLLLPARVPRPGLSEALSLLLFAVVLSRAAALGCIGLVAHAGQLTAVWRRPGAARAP

A further experiment deals with T2, DYRK2 (Homo sapiens, UniProt Q92630).
T2 sequence (Q92630 1-601): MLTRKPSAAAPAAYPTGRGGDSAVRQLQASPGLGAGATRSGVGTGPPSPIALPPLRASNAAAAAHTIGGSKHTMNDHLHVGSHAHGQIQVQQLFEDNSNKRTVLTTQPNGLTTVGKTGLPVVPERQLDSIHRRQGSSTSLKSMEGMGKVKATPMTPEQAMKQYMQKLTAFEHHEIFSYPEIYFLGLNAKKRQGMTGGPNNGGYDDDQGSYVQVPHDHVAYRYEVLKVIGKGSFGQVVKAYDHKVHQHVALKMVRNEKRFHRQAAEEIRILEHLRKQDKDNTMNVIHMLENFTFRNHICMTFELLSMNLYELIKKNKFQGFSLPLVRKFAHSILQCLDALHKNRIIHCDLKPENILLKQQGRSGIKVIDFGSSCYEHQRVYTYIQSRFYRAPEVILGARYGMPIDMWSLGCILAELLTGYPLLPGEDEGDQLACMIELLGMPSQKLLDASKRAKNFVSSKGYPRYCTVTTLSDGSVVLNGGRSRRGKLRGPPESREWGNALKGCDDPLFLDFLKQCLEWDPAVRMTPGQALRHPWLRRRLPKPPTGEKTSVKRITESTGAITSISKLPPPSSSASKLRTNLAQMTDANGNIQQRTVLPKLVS

The target in another experiment is T3, EphB3 (Homo sapiens, UniProt P54753).
T3 sequence (P54753 1-998): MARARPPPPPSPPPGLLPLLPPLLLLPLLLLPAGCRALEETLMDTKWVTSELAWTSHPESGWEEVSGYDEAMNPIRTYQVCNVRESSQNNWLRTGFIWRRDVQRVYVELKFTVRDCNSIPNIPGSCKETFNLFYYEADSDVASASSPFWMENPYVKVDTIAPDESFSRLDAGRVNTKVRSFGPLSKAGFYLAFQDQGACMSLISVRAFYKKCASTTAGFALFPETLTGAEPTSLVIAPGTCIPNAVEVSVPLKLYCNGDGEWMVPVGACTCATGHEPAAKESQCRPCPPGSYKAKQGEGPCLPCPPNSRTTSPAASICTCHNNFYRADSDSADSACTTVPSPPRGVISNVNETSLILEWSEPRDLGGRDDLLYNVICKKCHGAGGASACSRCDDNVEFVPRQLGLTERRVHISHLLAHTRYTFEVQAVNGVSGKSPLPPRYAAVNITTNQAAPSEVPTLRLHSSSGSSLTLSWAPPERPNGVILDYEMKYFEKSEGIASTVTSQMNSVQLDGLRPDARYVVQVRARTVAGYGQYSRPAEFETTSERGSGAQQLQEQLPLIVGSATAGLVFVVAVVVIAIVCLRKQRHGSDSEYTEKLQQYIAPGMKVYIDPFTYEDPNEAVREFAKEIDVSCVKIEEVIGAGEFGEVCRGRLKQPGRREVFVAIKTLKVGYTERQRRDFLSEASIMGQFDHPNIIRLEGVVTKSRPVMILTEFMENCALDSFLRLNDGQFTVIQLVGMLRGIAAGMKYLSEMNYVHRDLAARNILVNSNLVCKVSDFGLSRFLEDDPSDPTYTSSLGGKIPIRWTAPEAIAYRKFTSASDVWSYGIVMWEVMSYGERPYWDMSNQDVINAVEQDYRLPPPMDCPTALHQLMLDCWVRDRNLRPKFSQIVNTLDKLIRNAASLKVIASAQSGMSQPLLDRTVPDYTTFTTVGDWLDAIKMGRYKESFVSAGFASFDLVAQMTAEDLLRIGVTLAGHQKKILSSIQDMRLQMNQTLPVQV

The structures appear in SMILES notation. Read-outs that look alike come from different tables or passages of the source.

Chain of FGFR2 (P21802 whole entry): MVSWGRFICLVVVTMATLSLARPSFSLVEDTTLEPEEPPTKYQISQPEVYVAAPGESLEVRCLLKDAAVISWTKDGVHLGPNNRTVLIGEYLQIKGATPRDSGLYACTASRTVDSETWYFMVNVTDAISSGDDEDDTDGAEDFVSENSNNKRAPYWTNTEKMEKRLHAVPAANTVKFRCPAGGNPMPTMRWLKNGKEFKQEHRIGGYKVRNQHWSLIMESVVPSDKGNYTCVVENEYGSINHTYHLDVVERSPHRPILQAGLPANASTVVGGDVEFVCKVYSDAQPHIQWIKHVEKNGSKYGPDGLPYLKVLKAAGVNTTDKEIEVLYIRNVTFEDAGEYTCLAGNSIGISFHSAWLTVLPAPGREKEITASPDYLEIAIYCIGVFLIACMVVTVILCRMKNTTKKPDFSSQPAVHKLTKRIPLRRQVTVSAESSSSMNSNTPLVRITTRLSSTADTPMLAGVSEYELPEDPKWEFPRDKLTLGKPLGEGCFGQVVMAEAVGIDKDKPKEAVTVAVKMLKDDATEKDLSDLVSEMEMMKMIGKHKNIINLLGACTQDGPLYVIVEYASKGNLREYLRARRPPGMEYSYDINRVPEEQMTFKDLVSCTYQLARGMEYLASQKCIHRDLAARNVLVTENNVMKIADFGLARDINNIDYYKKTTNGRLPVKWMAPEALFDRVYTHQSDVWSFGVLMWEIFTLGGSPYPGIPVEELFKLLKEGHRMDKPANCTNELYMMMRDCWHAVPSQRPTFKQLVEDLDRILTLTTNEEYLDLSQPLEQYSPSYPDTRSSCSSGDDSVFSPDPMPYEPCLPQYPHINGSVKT
Chain of LOK (O94804 whole entry): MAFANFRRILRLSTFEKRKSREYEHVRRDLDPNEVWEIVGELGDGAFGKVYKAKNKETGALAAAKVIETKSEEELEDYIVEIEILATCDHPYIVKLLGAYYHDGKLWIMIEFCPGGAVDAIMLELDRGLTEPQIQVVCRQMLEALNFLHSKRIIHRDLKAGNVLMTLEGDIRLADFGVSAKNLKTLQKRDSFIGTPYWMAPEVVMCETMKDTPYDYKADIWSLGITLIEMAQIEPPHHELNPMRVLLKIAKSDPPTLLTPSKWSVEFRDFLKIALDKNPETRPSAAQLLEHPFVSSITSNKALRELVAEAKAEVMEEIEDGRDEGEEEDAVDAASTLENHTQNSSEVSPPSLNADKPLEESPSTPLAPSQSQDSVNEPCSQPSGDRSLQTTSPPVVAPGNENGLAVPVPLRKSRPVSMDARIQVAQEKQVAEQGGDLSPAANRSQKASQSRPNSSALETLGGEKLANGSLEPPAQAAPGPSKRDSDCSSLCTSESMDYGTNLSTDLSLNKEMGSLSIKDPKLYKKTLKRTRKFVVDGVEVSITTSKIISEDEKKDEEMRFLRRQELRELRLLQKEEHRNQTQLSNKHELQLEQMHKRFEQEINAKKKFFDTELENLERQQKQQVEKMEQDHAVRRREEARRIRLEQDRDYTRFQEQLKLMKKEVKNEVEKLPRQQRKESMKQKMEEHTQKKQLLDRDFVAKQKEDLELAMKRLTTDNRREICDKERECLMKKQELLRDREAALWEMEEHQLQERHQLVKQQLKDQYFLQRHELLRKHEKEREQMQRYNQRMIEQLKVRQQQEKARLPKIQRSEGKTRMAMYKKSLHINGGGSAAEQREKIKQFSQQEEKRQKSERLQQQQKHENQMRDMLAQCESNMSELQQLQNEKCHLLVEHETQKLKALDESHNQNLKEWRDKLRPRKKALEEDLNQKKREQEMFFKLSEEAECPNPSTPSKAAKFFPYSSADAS
Chain of GSK3B (P49841 whole entry): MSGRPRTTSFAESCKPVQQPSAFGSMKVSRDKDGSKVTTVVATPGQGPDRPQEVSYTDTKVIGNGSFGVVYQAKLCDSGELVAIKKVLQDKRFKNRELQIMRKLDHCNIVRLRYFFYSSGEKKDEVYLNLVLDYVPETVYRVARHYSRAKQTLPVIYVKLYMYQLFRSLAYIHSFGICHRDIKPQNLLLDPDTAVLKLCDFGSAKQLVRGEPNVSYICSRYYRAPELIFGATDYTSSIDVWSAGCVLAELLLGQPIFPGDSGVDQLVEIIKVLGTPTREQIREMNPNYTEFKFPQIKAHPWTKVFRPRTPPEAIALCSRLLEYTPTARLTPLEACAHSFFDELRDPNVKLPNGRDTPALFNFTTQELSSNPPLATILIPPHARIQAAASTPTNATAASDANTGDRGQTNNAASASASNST

In the case of `CNc1ncc2cc(-c3ccc(-c4cccc(C)n4)cc3Cl)c(=O)n(CC3OCC(N)CO3)c2n1` (centres unmarked) [compound 2, G-5555], the “dTm G-5555 (2)” value at DMPK1 (10 µM, binder) is -0.3 °C; on DYRK1A (10 µM, binder), -1.0 °C; at DYRK2 (10 µM, binder), -0.1 °C; at EphB3 (10 µM, binder) it was 1.7 °C; at FGFR2 (10 µM, binder), 0.7 °C; on GSK3B (10 µM, binder), 0.1 °C. At LOK (10 µM, binder), the “dTm G-5555 (2)” value was found to be 10.2 °C.
With `CNc1ncc2cc(-c3cc(Br)ccc3Cl)c(=O)n(C[C@H]3OC[C@H](N)CO3)c2n1` [compound 7, 8-(((2r,5r)-5-Amino-1,3-dioxan-2-yl)methyl)-6-(5-bromo-2-chlorophenyl)-2-(methylamino)pyrido[2,3-d]pyrimidin-7(8H)-one], the ΔTm at 10 µM on DMPK1 (read-out: dTm 7) was -0.1 °C; at DYRK1A (read-out: dTm 7), -0.6 °C; at DYRK2 (read-out: dTm 7), 0 °C; at EphB3 (read-out: dTm 7) it was 2.5 °C; on FGFR2 (read-out: dTm 7), 3.7 °C; on GSK3B (read-out: dTm 7), 0.3 °C. The ΔTm at 10 µM on LOK (read-out: dTm 7) worked out at 2.1 °C.
`CNc1ncc2cc(-c3cc(Br)ccc3Cl)c(=O)n(CCCCN)c2n1` [compound 6, 8-(4-Aminobutyl)-6-(5-bromo-2-chlorophenyl)-2-(methylamino)pyrido[2,3-d]pyrimidin-7(8H)-one]: the ΔTm at 10 µM at DMPK1 (read-out: dTm 6) is 1.2 °C; on DYRK1A (read-out: dTm 6), 0 °C; at DYRK2 (read-out: dTm 6), -0.1 °C; on EphB3 (read-out: dTm 6), 3.5 °C; on FGFR2 (read-out: dTm 6), 4.1 °C; at GSK3B (read-out: dTm 6), 1 °C. Moreover, at LOK (read-out: dTm 6), the ΔTm at 10 µM was 2.4 °C.
Regarding `CNc1ncc2cc(-c3ccccc3Cl)c(=O)n(CCCCN)c2n1` [compound 4, 8-(4-Aminobutyl)-6-(2-chlorophenyl)-2-(methylamino)pyrido[2,3-d]pyrimidin-7(8H)-one], the ΔTm at 10 µM on DMPK1 (read-out: dTm MR21 (4)) turned out to be 2.8 °C; on DYRK1A (read-out: dTm MR21 (4)) it was 1.4 °C; on DYRK2 (read-out: dTm MR21 (4)) it was 0 °C; at EphB3 (read-out: dTm MR21 (4)) it was 6 °C; on FGFR2 (read-out: dTm MR21 (4)) it was 4.7 °C; at GSK3B (read-out: dTm MR21 (4)), 2.7 °C. For the same compound, the ΔTm at 10 µM at LOK (read-out: dTm MR21 (4)) was determined as 5.4 °C.
Turning to `CNc1ncc2cc(-c3cc(F)ccc3F)c(=O)n(CCCCN)c2n1` [compound 5, 8-(4-Aminobutyl)-6-(2,5-difluorophenyl)-2-(methylamino)pyrido[2,3-d]pyrimidin-7(8H)-one], the ΔTm at 10 µM at DMPK1 (read-out: dTm MR22 (5)) came out at 0.9 °C; on DYRK1A (read-out: dTm MR22 (5)) it was 0 °C; on DYRK2 (read-out: dTm MR22 (5)), 0.2 °C; on EphB3 (read-out: dTm MR22 (5)), 3.3 °C; on FGFR2 (read-out: dTm MR22 (5)) it was 3.7 °C; at GSK3B (read-out: dTm MR22 (5)), 1.6 °C. The ΔTm at 10 µM at LOK (read-out: dTm MR22 (5)) was -0.4 °C.

Values taken from paper doi:10.1101/2023.03.24.534094v2 (biorxiv, 2023).
